Counter-ions that a name gives are not always drawn. Like-named read-outs stand apart in the source and are kept apart here. Where only a bound is given, the exact number is not on record here.

The target in assay [1] is T1, catalytic domain of human Bub1 (amino acids 704-1085) (Homo sapiens, UniProt O43683).
T1 construct: catalytic domain of human Bub1 (amino acids 704-1085); His6 (N); made in house; host or cells: Hi5 insect cells
Briefly: Bub1 kinase assay (TR-FRET). The format is biochemical. In short, it runs like this:
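TR-FRET read-out (Eu-anti-mouse IgG/anti-phosphoserine antibody to streptavidin-XL665 on biotinylated peptide) after EDTA stop and 1 h complex formation at 22° C. Kinase reaction ran 60 min at 22° C with 1:3.4 serial dilutions from 2 mM DMSO stocks. IC50 from 4-parameter logistic fit of normalized inhibition.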

Another assay addresses Bub1 (Homo sapiens, UniProt O43683). Briefly: Formation-Assay: phosphorylation status of histone 2A by inhibition of kinase activity of Bub1. The format is cell-based. Particulars: Biological Assay 4.1: H2A Formation IC50, co-treatment with Nocodazole 1 μg/ml, 16 h. In short, it runs like this: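 Cells co-treated 16 h with Nocodazole (1 μg/ml) and compound (3 nM–10 μM), then fixed and immunostained for phospho-H2A, read by infrared imaging (800 nm) normalised to cell stain (700 nm). Nocodazole-only set as 100%, untreated cells as 0%.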

Another assay has as its system HeLa. Briefly: Proliferation assay (HeLa cell line).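 Further: crystal violet staining of cell number, scaled between a plate stained before dosing (0%) and cells left untreated (100%), compounds tested at 0.001-10 µM, IC50 via 4-parameter fit.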 The following applies: Homo sapiens, 96 h, read-out: Biological Assay 2: Proliferation assay (HeLa cell line) median IC50.
The subject of assay [2] is HeLa human cervical tumor cells. Kind of assay: Proliferation assay (HeLa+Paclitaxel).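 Further: compounds at 0.001-10 µM added 4 h after paclitaxel, 92 h exposure, absorbance normalized to zero-point plate (0%) and untreated cells (100%), IC50 from 4-parameter fit.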 Particulars: read-out: Biological Assay 3: HeLa + Paclitaxel IC50, 3 nM paclitaxel, crystal violet.
Where [3] appears, read: 10 μM ATP, read-out: Biological Assay 1: Bub1 kinase assay median IC50.
Where [4] appears, read: Biological Assay 1: Bub1 kinase assay median IC50, 10 μM ATP.

Bub1, sequence (O43683 whole entry): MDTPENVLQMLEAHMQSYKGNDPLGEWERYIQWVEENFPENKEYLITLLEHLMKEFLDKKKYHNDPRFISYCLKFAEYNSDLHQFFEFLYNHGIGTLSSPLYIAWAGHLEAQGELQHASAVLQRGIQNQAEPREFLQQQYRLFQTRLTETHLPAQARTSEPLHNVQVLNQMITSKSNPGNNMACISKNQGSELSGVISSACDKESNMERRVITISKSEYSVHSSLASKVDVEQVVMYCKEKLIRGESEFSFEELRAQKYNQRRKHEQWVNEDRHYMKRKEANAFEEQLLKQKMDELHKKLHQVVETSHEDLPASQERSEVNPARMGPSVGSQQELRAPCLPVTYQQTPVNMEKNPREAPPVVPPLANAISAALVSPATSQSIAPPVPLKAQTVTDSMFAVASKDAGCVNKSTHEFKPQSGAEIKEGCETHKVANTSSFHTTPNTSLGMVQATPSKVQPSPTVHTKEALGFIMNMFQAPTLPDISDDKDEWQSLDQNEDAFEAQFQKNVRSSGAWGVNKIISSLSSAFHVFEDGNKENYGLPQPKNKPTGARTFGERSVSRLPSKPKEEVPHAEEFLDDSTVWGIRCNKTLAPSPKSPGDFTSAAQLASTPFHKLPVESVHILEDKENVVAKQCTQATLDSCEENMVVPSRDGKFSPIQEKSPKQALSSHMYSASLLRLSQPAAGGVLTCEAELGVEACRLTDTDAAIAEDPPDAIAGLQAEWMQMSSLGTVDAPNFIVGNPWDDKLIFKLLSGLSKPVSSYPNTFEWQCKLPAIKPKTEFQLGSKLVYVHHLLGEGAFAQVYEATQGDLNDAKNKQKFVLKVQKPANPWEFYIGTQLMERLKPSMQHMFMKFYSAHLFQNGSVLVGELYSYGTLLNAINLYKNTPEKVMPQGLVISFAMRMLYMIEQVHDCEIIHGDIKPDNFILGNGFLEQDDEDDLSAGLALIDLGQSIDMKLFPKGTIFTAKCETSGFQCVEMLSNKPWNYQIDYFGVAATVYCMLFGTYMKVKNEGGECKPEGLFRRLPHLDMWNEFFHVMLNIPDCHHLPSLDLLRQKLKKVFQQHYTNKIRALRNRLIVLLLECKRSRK
T1 sequence (O43683 704-1085): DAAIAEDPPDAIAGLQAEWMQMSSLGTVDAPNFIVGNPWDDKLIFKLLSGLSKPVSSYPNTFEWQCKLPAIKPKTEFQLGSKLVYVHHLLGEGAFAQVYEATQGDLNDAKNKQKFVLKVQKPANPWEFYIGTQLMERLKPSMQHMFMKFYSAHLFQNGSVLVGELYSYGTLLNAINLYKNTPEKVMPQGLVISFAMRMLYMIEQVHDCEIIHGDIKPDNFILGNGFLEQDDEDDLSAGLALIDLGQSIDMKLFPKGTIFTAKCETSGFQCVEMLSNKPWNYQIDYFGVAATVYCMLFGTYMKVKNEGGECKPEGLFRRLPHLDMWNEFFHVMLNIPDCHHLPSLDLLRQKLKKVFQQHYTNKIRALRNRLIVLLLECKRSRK

`CCOc1cc(F)c(Cn2nc(-c3nc4c(c(Nc5ccnnc5)n3)CCC4)c3ccccc32)c(F)c1` [Example 2-14-5, 2-[1-(4-ethoxy-2,6-difluorobenzyl)-1H-indazol-3-yl]-N-(pyridazin-4-yl)-6,7-dihydro-5H-cyclopenta[d]pyrimidin-4-amine]: the IC50 in assay [1] (setting [3]) is 16 nM; at Bub1, 2.7 nM; in the assay with HeLa, 3600 nM; in assay [2], 540 nM.

For `CCOc1cc(F)c(Cn2nc(-c3ncc(CC4CNC4)c(Nc4ccnc(C(F)(F)F)c4)n3)c3ccccc32)c(F)c1` [Example 2-9-8], the IC50 in assay [1] (setting [3]) is 440 nM; on Bub1 it was 14 nM; with HeLa it was 1800 nM; in assay [2], 220 nM.

Take `CCOc1cc(F)c(Cn2nc(-c3ncc4c(n3)N(c3ccncc3)C[C@H]4CNCC(F)(F)F)c3ccccc32)c(F)c1` [Example 2-11-3, N-({2-[1-(4-ethoxy-2,6-difluorobenzyl)-1H-indazol-3-yl]-7-(pyridin-4-yl)-6,7-dihydro-5H-pyrrolo[2,3d]pyr-imidin-5-yl}methyl)-2,2,2-trifluoroethanamine]: the IC50 in assay [1] (setting [4]) worked out at 12 nM; on Bub1, 93 nM; in the assay on HeLa it was 3000 nM; in assay [2], 100 nM.

Take `CCOc1cc(F)c(Cn2nc(-c3nc(CC)cc(Nc4ccncc4)n3)c3ccccc32)c(F)c1` [Example 2-12-9, 2-[1-(4-ethoxy-2,6-difluorobenzyl)-1H-indazol-3-yl]-6-ethyl-N-(pyridin-4-yl)pyrimidin-4-amine]: the IC50 came out at 21 nM in assay [1] (setting [4]), 11 nM at Bub1, 3700 nM in the assay on HeLa and 540 nM in assay [2].

For `CCOc1cc(F)c(Cn2nc(-c3ncc(CCCO)c(Nc4ccncc4)n3)c3ccccc32)c(F)c1` [Example 2-13-1, 3-{2-[1-(4-ethoxy-2,6-difluorobenzyl)-1H-indazol-3-yl]-4-(pyridin-4-ylamino)pyrimidin-5-yl}propan-1-ol], the IC50 is 5.3 nM in assay [1] (setting [4]), 8.2 nM at Bub1, 3700 nM in the assay on HeLa and 370 nM in assay [2].

As to `CCOc1cc(F)c(Cn2nc(-c3nc4c(c(Nc5ccncc5OC)n3)CCC4)c3ccccc32)c(F)c1` [Example 2-14-4, 2-[1-(4-ethoxy-2,6-difluorobenzyl)-1H-indazol-3-yl]-N-(3-methoxypyridin-4-yl)-6,7-dihydro-5H-cyclopenta[d]pyrimidin-4-amine], the IC50 in assay [1] (setting [3]) was 2.9 nM; on Bub1, 13 nM; in the assay on HeLa, 940 nM; in assay [2] it was 120 nM.

Turning to `CCOc1cc(F)c(Cn2nc(-c3nc(CN4CCOCC4)cc(Nc4ccncc4Cl)n3)c3ccccc32)c(F)c1` [Example 2-12-34, N-(3-chloropyridin-4-yl)-2-[1-(4-ethoxy-2,6-difluorobenzyl)-1H-indazol-3-yl]-6-(morpholin-4-ylmethyl)pyrimidin-4-amine], the IC50 in assay [1] (setting [3]) stood at 36 nM; on Bub1, 700 nM; with HeLa, 7800 nM; in assay [2], 500 nM.

For the compound `OCCOc1cc(F)c(Cn2nc(-c3nc4c(c(Nc5ccnnc5)n3)CCC4)c3ccccc32)c(F)c1` [Example 2-4-10, 2-[3,5-difluoro-4-({3-[4-(pyridazin-4-ylamino)-6,7-dihydro-5H-cyclopenta[d]pyrimidin-2-yl]-1H-indazol-1-yl}methyl)phenoxy]ethanol, salt with hydrochloric acid], the IC50 in assay [1] (setting [4]) is 18 nM; at Bub1, 10 nM; in the assay with HeLa, more than 10000 nM; in assay [2], 1200 nM.

On to `CCOc1cc(F)c(Cn2nc(-c3nc(COC)cc(Nc4ccncc4)n3)c3ccccc32)c(F)c1` [Example 2-12-4, 2-[1-(4-ethoxy-2,6-difluorobenzyl)-1H-indazol-3-yl]-6-(methoxymethyl)-N-(pyridin-4-yl)pyrimidin-4-amine], for which the IC50 stood at 5.2 nM in assay [1] (setting [4]), 8.9 nM on Bub1, 1800 nM in the assay with HeLa and 420 nM in assay [2].

As to `CCOc1cc(F)c(Cn2nc(-c3ncc(CC(C)(C)N)c(Nc4ccncc4)n3)c3ccccc32)c(F)c1` [Example 2-9-18, 5-(2-amino-2-methylpropyl)-2-[1-(4-ethoxy-2,6-difluorobenzyl)-1H-indazol-3-yl]-N-(pyridin-4-yl)pyrimidin-4-amine, salt with hydrochloric acid], the IC50 in assay [1] (setting [3]) was determined as 15 nM; on Bub1 it was 6.7 nM; in the assay on HeLa, 5500 nM; in assay [2], 170 nM.

Consider `OCCOc1cc(F)c(Cn2nc(-c3ncc(C4CCN(CCC(F)(F)F)CC4)c(Nc4ccncc4Cl)n3)c3ccccc32)c(F)c1` [Example 2-6-15, 2-{4-[(3-{4-[(3-chloropyridin-4-yl)amino]-5-[1-(3,3,3-trifluoropropyl)piperidin-4-yl]pyrimidin-2-yl}-1H-indazol-1-yl)methyl]-3,5-difluorophenoxy} ethanol], for which the IC50 was found to be 31 nM in assay [1] (setting [4]), 19 nM on Bub1, 2200 nM with HeLa and 180 nM in assay [2].

As to `CCOc1cc(F)c(Cn2nc(-c3nc4c(c(Nc5ccncc5)n3)CCNC4)c3ccccc32)c(F)c1` [Example 2-18-1, 2-[1-(4-ethoxy-2,6-difluorobenzyl)-1H-indazol-3-yl]-N-(pyridin-4-yl)-5,6,7,8-tetrahydropyrido[3,4-d]pyrimidin-4-amine], the IC50 worked out at 6.1 nM in assay [1] (setting [4]), 20 nM on Bub1, 1700 nM with HeLa and 160 nM in assay [2].

For `CCOc1cc(F)c(Cn2nc(-c3ncc(CC4CN(CC(F)(F)F)C4)c(Nc4ccncc4)n3)c3ccccc32)c(F)c1` [Example 2-11-1, 2-[1-(4-ethoxy-2,6-difluorobenzyl)-1H-indazol-3-yl]-N-(pyridin-4-yl)-5-{[1-(2,2,2-trifluoroethyl)azetidin-3-yl]methyl}pyrimidin-4-amine], the IC50 in assay [1] (setting [4]) was 62 nM; at Bub1 it was 41 nM; in the assay with HeLa, more than 10000 nM; in assay [2], 230 nM.

For `CCOc1cc(F)c(Cn2nc(-c3ncc(CCNCC(F)(F)F)c(Nc4ccncc4Cl)n3)c3ccccc32)c(F)c1` [Example 2-20-14, N-(3-chloropyridin-4-yl)-2-[1-(4-ethoxy-2,6-difluorobenzyl)-1H-indazol-3-yl]-5-{2-[(2,2,2-trifluoroethyl)amino]ethyl}pyrimidin-4-amine], the IC50 is 48 nM in assay [1] (setting [4]), 2.6 nM at Bub1, more than 10000 nM in the assay with HeLa and 120 nM in assay [2].

With `CCOc1cc(F)c(Cn2nc(-c3ncc(CC4CNC4)c(Nc4ccnc(NC(C)=O)c4)n3)c3ccccc32)c(F)c1` [Example 2-9-7, N-[4-({5-(azetidin-3-ylmethyl)-2-[1-(4-ethoxy-2,6-difluorobenzyl)-1H-indazol-3-yl]pyrimidin-4-yl}amino)pyridin-2-yl]acetamide, salt with hydrochloric acid], the IC50 was 7.4 nM in assay [1] (setting [4]), 6.7 nM at Bub1, 10000 nM in the assay on HeLa and 170 nM in assay [2].

As for `CCOc1cc(F)c(Cn2nc(-c3nc(Nc4ccnc(C)n4)cc(C(F)(F)F)n3)c3ccccc32)c(F)c1` [Example 2-12-83, 2-[1-(4-ethoxy-2,6-difluorobenzyl)-1H-indazol-3-yl]-N-(2-methylpyrimidin-4-yl)-6-(trifluoromethyl)pyr-imidin-4-amine], the IC50 in assay [1] (setting [4]) is more than 20000 nM; on Bub1, 31 nM; in the assay on HeLa, more than 10000 nM; in assay [2] it was 350 nM.

For `OCCOc1cc(F)c(Cn2nc(-c3nc(CN4CCOCC4)cc(Nc4ccnnc4)n3)c3ccccc32)c(F)c1` [Example 2-6-37, 2-[3,5-difluoro-4-({3-[4-(morpholin-4-ylmethyl)-6-(pyridazin-4-ylamino)pyrimidin-2-yl]-1H-indazol-1-yl}methyl)phenoxy]ethanol], the IC50 is 40 nM in assay [1] (setting [3]), 260 nM at Bub1, 9500 nM with HeLa and 2300 nM in assay [2].

Turning to `CCOc1cc(F)c(Cn2nc(-c3ncc(CCCCN4CCCC(F)(F)C4)c(Nc4ccncc4)n3)c3ccccc32)c(F)c1` [Example 2-2-17, 5-[4-(3,3-difluoropiperidin-1-yl)butyl]-2-[1-(4-ethoxy-2,6-difluorobenzyl)-1H-indazol-3-yl]-N-(pyridin-4-yl)pyrimidin-4-amine], the IC50 in assay [1] (setting [4]) turned out to be 95 nM; on Bub1, 1200 nM; with HeLa, 9300 nM; in assay [2] it was 340 nM.

Consider `CCOc1cc(F)c(Cn2nc(-c3nc4c(c(Nc5ccncc5C)n3)CCCC4)c3ccccc32)c(F)c1` [Example 2-19-20, 2-[1-(4-ethoxy-2,6-difluorobenzyl)-1H-indazol-3-yl]-N-(3-methylpyridin-4-yl)-5,6,7,8-tetrahydroquinazolin-4-amine], for which the IC50 was 7 nM in assay [1] (setting [3]), 49 nM at Bub1, 5200 nM with HeLa and 120 nM in assay [2].

The values above are taken from US20170275270A1, “BENZYL SUBSTITUTED INDAZOLES” (Bayer Pharma Aktiengesellschaft, priority 2014, published 2017).
